“Also recorded” adds a separate entry of the source. Where a SMILES comes first, the peptide text is derived from it. The star is where a group is joined. Palmitoyl = CCCCCCCCCCCCCCCC(=O)*
What was measured:
WNV protease = target: T1, WNV protease (West Nile virus, UniProt P06935); assay: WNV protease assay (analogous procedure); format: biochemical; settings: at 50 μM
T1 construct: a trypsin-like serine protease domain in the N-terminal region of the flaviviral NS3 proteins
In short: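 Adapted from the DENV protease assay: inhibitors preincubated 15 min with protease (DENV at 100 nM) in 50 mM Tris-HCl pH 9.0, 10% ethylene glycol, 0.0016% Brij 58, then FRET substrate (50 μM final) added.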

human Thrombin = human Thrombin (Homo sapiens, UniProt P00734); assay: Selectivity screening, human serine protease thrombin; format: biochemical; settings: at 5 μM; read-out: inhibition of human Thrombin
human Trypsin = human Trypsin (Homo sapiens, UniProt P07477); assay: Selectivity screening, human serine protease trypsin; format: biochemical; settings: read-out: inhibition of human Trypsin
In short: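 Active candidates were counter-screened for selectivity against the human serine protease trypsin in a biochemical assay similar to the flavivirus protease assay. Cleavage of a substrate by protease activity raises fluorescence, which is read on a microtiter fluorescence plate reader. Compounds are diluted from 10 mM DMSO stocks and tested in triplicate, and inhibition of trypsin is reported.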

dengue virus = assay: In vivo assay using subcutaneous vs intraperitoneal administration, plaque assay in mouse plasma; design: species or system mice; settings: for therapeutic efficacy by plaque assays in mouse plasma through the treatment period / plaque assay in mouse plasma: 20 mg/kg (5h post infection); for efficacy against dengue virus infection after subcutaneous administration: subcutaneous vs other routes of administration, mice
Description: FIG. 5B-viral load (plaque assay) in plasma of mice following treatment with vehicle or with compound 113 (20 mg/kg, b.i.d. IP and SC starting at 5h post-infection). Error bars are Mean±SEM.
BHK-21 cells were cultured to approximately 80% confluency in 24-well plates (NUNC, NY, USA). Plasma samples were 10-fold serially diluted in RPMI 1640 (GIBCO). BHK-21 monolayers were infected with 100 μl of each virus dilution. After incubation at 37° C. and 5% CO2 atmosphere for one hour with rocking at 15 min intervals, the medium was decanted and 1 ml of 1% (w/v)carboxymethyl cellulose in RPMI supplemented with 2% FCS was added to each well. After four days incubation at 37° C. in 5% CO2, the cells were fixed with 4% paraformaldehyde and stained for 30 min with […] of 1% crystal violet dissolved in 37% formaldehyde. After thorough rinsing with water, plates were dried and the plaques were scored visually.
These studies were largely performed as in Example 17, with a difference found in the administration of compounds of the invention. […] In this example the compounds of the invention are administered using subcutaneous administration, and compound 113 was used as exemplary for compounds according to the invention.
Results are shown in the table below, where compounds were used at 20 mg/kg (5h post infection). Antiviral activity is much improved after subcutaneous administration, with a longer lasting effect.

ZIKA protease = target: T2, ZIKA protease (Zika virus, UniProt Q32ZE1); assay: biochemical; settings: for inhibition at 1 µM / inhibition at 50 µM: read-out: inhibition of ZIKV
T2 construct: a trypsin-like serine protease domain in the N-terminal region of the flaviviral NS3 proteins

IL-12 = assay: DENV2 infection in AG129 mice: plasma IL-12 (ELISA); format: in vivo; settings: 10 mg/kg I.P, b.i.d; n = 9; vs vehicle control
Description: Administration of compounds and vehicle to animals started twenty four hours before infection (Day −1). Animals were treated daily (From Day-1 to day 4) as per the experimental design shown below in table 3.1.5. Animals were monitored for general clinical signs, morbidity and mortality. Body weights were measured daily.
Cytokine levels (TNF alpha, IL-6 and IL-12) in plasma samples were measured using Enzyme-Linked Immunosorbent Assay (ELISA). Mouse TNF alpha ELISA Kit (Abcam: ab208348), Mouse IL-6 ELISA Kit (Abcam: ab100712), and Mouse IL-12 p40+IL-12 p70 ELISA Kit (Abcam: ab100699) were used to estimate TNF alpha, IL-6 and IL-12, respectively. The assays were performed according to the manufacturer's instructions and was analysed on a TECAN-NanoQuant Plate™ system.
The Mean±SD Log10PFU/ml, relative Mean±SD spleen weight, Mean±SD biomarker concentrations were estimated in each group. Significant differences between group means and control were analyzed by one-way ANOVA, followed by a Dunnett's multiple comparison test, using GraphPad Prism 5 at 95% confidence levels. A p value of <0.05 was considered as significant.

[1] = Tissue distribution (biodistribution) in rats; format: in vivo; settings: FIG. 5C after intravenous injection
Description: FIG. 5C-tissue distribution after intravenous injection in rats, measured by ratio concentration tissue over plasma.
Following administration, molecules reach the systemic circulation via either the blood capillaries or the lymphatic system.

[2] = Cytotoxicity (method not described); format: cell-based

T2 sequence (Q32ZE1 1499-1676): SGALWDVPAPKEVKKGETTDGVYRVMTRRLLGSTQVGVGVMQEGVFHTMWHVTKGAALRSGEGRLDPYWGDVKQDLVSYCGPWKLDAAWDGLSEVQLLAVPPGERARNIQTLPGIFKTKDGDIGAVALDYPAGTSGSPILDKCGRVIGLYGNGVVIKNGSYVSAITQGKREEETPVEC
T2 sequence (Q32ZE1 1421-1460): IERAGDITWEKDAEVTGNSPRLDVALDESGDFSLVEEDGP
T1 sequence (P06935 1424-1463): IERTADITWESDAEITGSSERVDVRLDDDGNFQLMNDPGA
T1 sequence (P06935 1502-1679): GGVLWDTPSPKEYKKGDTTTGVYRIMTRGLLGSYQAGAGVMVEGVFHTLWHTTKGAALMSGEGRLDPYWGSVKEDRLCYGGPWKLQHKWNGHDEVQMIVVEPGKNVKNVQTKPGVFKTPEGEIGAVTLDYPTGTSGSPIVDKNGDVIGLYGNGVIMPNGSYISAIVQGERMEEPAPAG

| SMILES | inhibition at 50 µM (WNV protease) [%] | inhibition at 5 µM (human Thrombin) [%] | inhibition at 5 µM (human Trypsin; at 5 μM) [%] | inhibition at 25 µM (human Trypsin; at 25 μM) [%] | therapeutic efficacy by plaque assays in mouse plasma through the treatment period (dengue virus) | plaque assay in mouse plasma (dengue virus; Day 3, IP) | plaque assay in mouse plasma (dengue virus; Day 3, SC) | plaque assay in mouse plasma (dengue virus; Day 4, IP) | plaque assay in mouse plasma (dengue virus; Day 4, SC) | efficacy against dengue virus infection after subcutaneous administration (dengue virus) | IC50 (ZIKA protease) [µM] | inhibition at 1 µM (ZIKA protease) [%] | inhibition at 50 µM (ZIKA protease) [%] | Plasma concentration of IL-12 in mouse plasma after treatment (IL-12) | EC50 (ZIKV) [µM] | tissue distribution, concentration in tissue (liver and spleen) versus plasma [1] | cytotoxicity [2] |
| --- | --- | --- | --- | --- | --- | --- | --- | --- | --- | --- | --- | --- | --- | --- | --- | --- | --- |
| CCCCCCCCCCCCCCCC(=O)N[C@@H](CCCNC(=N)N)C(=O)N[C@@H](CCC(N)=O)C(=O)N[C@@H](Cc1ccccc1)C(N)=O [compound 43] (Palmitoyl-Arg-Gln-Phe-NH2) | ≥ 25 | < 5 | < 10 | < 20 | good therapeutic efficacy | 4.32 ± 0.45 | 3.43 ± 0.304 | 4.38 ± 0.41 | 3.34 ± 0.40 | great efficacy | ≤ 25 | ≥ 10 | ≥ 65 |  |  |  |  |
| CCCCCCCCCCCCCCCC(=O)N[C@@H](CCCCN)CC(=O)N[C@@H](C)C(=O)N[C@@H](C)CC(=O)N[C@H](CCCCN)C(N)=O (stereo in doubt) [compound 113] |  |  |  |  | good therapeutic efficacy | 4.70 ± 0.75 | 3.58 ± 0.34 | 4.23 ± 0.52 | 3.26 ± 0.49 | great efficacy; also recorded: improved efficacy | ≤ 25 | ≥ 10 | ≥ 65 | 81.79 ± 14.30 | ≤ 10 | could reach the main target sites of dengue | minimal cytotoxicity |
